Values quoted from earlier work in US7010431B2, “Method for effecting computer implemented decision-support in the selection of the drug therapy of patients having a viral disease” (F. Hoffman-LaRoche Ltd., priority 2000, dated 2006).
Like-named read-outs stand apart in the source and are kept apart here.

Key:
[1] = test system: HIV protease (P) substitutions; set-up: key: 0 (low resistance); 3 (high resistance)
[2] = test system: HIV reverse transcriptase (RT) substitutions; set-up: key: 0 (low resistance); 3 (high resistance)
[3] = substitution 48 V, drug level 100

CC(C)(C)NC(=O)[C@@H]1C[C@@H]2CCCC[C@@H]2CN1C[C@@H](O)[C@H](Cc1ccccc1)NC(=O)[C@H](CC(N)=O)NC(=O)c1ccc2ccccc2n1 [FTV]
resistance @ level [1, 3]: 1

Cc1c(O)cccc1C(=O)N[C@@H](CSc1ccccc1)[C@H](O)CN1C[C@H]2CCCC[C@H]2C[C@H]1C(=O)NC(C)(C)C [NFV]
resistance @ level ([1]; substitution 84 + 90 + 46, drug level 100): 3

Cc1cn([C@H]2C=C[C@@H](CO)O2)c(=O)[nH]c1=O [D4T]
resistance @ level ([2]; substitution three of (41, 67, 70, 210, 215, 219), drug level 100): 1

CC(C)CN(C[C@@H](O)[C@H](Cc1ccccc1)NC(=O)O[C@H]1CCOC1)S(=O)(=O)c1ccc(N)cc1 [AMP]
resistance @ level ([1]; substitution 90M/I, drug level 10000): 1

Nc1nc(NC2CC2)c2ncn([C@H]3C=C[C@@H](CO)C3)c2n1 [ABC]
resistance @ level ([2]; substitution 184 + two of (41, 67, 70, 210, 215, 219), drug level 10000): 2

Cc1cn([C@H]2C[C@H](N=[N+]=[N-])[C@@H](CO)O2)c(=O)[nH]c1=O [ZDV]
resistance @ level ([2]; substitution 215Y/F + 41, drug level 100): 3

Nc1ccn([C@@H]2CS[C@H](CO)O2)c(=O)n1 [3TC]
resistance @ level ([2]; substitution 69SS + 215, drug level 100): 2

Cc1ccnc2c1NC(=O)c1cccnc1N2C1CC1 [NVP]
resistance @ level ([2]; substitution 236, drug level 100): 0

CC(C)(C)NC(=O)[C@@H]1CN(Cc2cccnc2)CCN1C[C@@H](O)C[C@@H](Cc1ccccc1)C(=O)N[C@H]1c2ccccc2C[C@H]1O [IND]
resistance @ level [1, 3]: 0 | resistance @ level ([1]; substitution 82A/F/T/S, drug level 100): 1
